The record followed here is patent US11976072B2, “Diacylglycerol kinase modulating compounds” (priority 2021, dated 2024).

For one assay, the target named is human DGKα (Homo sapiens, UniProt P23743). Put plainly: DGKα Biochemical Activity Assay (ADP-Glo).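 Further: luminescent detection of ADP produced as DGKα phosphorylates DAG to phosphatidic acid, IC50 from four-parameter nonlinear curve fit.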 The settings on record: recombinant DGKα 1 nM, 100 μM ATP, 18:1 DAG/POPS/octylglucoside micelles, 1 hour at 25° C.; geometric mean; read-out: HTBS DGKa 1X ATP KM IC50. Background: In ADP-Glo the light output rises with the ADP produced.
In assay [1] the test system is Jurkat NFκB-luciferase cells. In words: Jurkat NFκB-Luciferase Assay. The class given is cell-based. The note with it: Homo sapiens; Jurkat NFκB-luciferase cells activated with anti-CD3 antibody (OKT3), 2.5 hrs at 37° C.; geometric mean; read-out: DGK NFKb Luciferase EC50. A digest of the protocol:
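Luminescence from One-Glo Ex, read 7 min post-addition, reports NFκB activation in Jurkat luciferase reporter cells. Cells, diluted to 1 million cells/ml in 10% FBS RPMI, were dispensed onto plates holding compound and washed, pre-bound antibody.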

Sequence of human DGKα (P23743 whole entry): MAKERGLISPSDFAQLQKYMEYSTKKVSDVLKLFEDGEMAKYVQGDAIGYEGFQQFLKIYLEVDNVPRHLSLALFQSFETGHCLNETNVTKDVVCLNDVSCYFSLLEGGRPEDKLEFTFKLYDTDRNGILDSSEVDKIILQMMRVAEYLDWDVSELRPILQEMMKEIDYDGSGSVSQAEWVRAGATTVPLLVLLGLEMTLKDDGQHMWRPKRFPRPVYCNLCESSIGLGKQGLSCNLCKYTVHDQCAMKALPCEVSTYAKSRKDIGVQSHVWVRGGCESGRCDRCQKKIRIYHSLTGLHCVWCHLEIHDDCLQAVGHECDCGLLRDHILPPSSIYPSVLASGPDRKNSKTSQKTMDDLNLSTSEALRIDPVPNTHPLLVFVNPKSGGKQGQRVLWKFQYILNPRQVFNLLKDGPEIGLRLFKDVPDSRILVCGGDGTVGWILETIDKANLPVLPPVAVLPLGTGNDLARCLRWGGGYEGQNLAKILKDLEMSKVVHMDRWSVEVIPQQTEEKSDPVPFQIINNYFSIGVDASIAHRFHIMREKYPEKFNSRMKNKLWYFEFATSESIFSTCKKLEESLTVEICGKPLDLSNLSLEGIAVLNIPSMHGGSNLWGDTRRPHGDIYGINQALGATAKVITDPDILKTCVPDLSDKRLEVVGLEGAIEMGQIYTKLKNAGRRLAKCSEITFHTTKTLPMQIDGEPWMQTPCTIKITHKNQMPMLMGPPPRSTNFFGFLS

With `CC1(C#Cc2cc(N(CC(F)F)c3nc4nncn4c4ccc(F)cc34)ccn2)CC1` [Example 102, N-(2,2-difluoroethyl)-7-fluoro-N-(2-((1-methylcyclopropyl)ethynyl)pyridin-4-yl)-[1,2,4]triazolo[4,3-a]quinazolin-5-amine], at human DGKα, the IC50 was determined as 3.8 nM. Moreover, the EC50 in assay [1] was determined as 2.81 nM.

For the compound `Cc1nnc2nc(N3CCCc4c(C#CC5(C(F)(F)F)CC5)cccc43)c3c(Cl)c(F)ccc3n12` [Example 37, 6-chloro-7-fluoro-1-methyl-5-[5-[2-[1-(trifluoromethyl)cyclopropyl]ethynyl]-3,4-dihydro-2H-quinolin-1-yl]-[1,2,4]triazolo[4,3-a]quinazoline], the IC50 at human DGKα was 64.8 nM. In addition, the EC50 in assay [1] was determined as 1.88 nM.

Regarding `Cc1nnc2nc(N3CCCc4c(C#CC5CCCCO5)cccc43)c3cc(F)ccc3n12` (stereo not drawn) [Example 130, 7-fluoro-1-methyl-5-(5-((tetrahydro-2H-pyran-2-yl)ethynyl)-3,4-dihydroquinolin-1(2H)-yl)-[1,2,4]triazolo[4,3-a]quinazoline], on human DGKα, the 50% inhibitory concentration (IC50) was found to be 4.19 nM. Also, the 50% effective concentration (EC50) in assay [1] is 1.98 nM.

Turning to `Cc1nnc2nc(N3CCCc4c3ccnc4C#CC3(C)CC3)c3c(F)c(F)ccc3n12` [Example 85, 6,7-difluoro-1-methyl-5-(5-((1-methylcyclopropyl)ethynyl)-3,4-dihydro-1,6-naphthyridin-1(2H)-yl)-[1,2,4]triazolo[4,3-a]quinazoline], at human DGKα, the concentration for half-maximal inhibition (IC50) was 7.21 nM. The EC50 in assay [1] is 2.24 nM.

As for `CC1(C#Cc2cncc3c2CCCN3c2nc3nncn3c3ccc(F)c(F)c23)CC1` [Example 99, 6,7-difluoro-5-(5-((1-methylcyclopropyl)ethynyl)-3,4-dihydro-1,7-naphthyridin-1(2H)-yl)-[1,2,4]triazolo[4,3-a]quinazoline], at human DGKα, the 50% inhibitory concentration (IC50) was 7.4 nM. Further, the 50% effective concentration (EC50) in assay [1] turned out to be 0.483 nM.

In the case of `Cc1nc(C#Cc2cccc3c2CCCN3c2nc3nnc(C)n3c3ccc(F)cc23)cs1` [Example 231, 4-[2-[1-(7-fluoro-1-methyl-[1,2,4]triazolo[4,3-a]quinazolin-5-yl)-3,4-dihydro-2H-quinolin-5-yl]ethynyl]-2-methyl-thiazole], the concentration for half-maximal inhibition (IC50) on human DGKα turned out to be 7.64 nM. In addition, in assay [1], the EC50 was 4.06 nM.

Take `CC1(C#Cc2cc(F)cc(N(CC(F)F)c3nc4nncn4c4c(Cl)cc(F)cc34)c2)CC1` [Example 49, 9-chloro-N-(2,2-difluoroethyl)-7-fluoro-N-[3-fluoro-5-[2-(1-methylcyclopropyl)ethynyl]phenyl]-[1,2,4]triazolo[4,3-a]quinazolin-5-amine]: the IC50 on human DGKα was found to be 12.4 nM. Further, the concentration giving a half-maximal response (EC50) in assay [1] is 1.36 nM.

Take `Cc1nnc2nc(N3CCN(C)Cc4c(C#CC5(C(C)(F)F)CC5)cccc43)c3c(F)cccc3n12` [Example 166, 5-[6-[2-[1-(1,1-difluoroethyl)cyclopropyl]ethynyl]-4-methyl-3,5-dihydro-2H-1,4-benzodiazepin-1-yl]-6-fluoro-1-methyl-[1,2,4]triazolo[4,3-a]quinazoline]: the IC50 on human DGKα amounted to 17.4 nM. The EC50 in assay [1] was found to be 15.8 nM.

On to `Cc1nnc2nc(N3CCCc4c(C#CC5CC(F)(F)C5)cccc43)c3cc(F)ccc3n12` [Example 32, 5-(5-((3,3-difluorocyclobutyl)ethynyl)-3,4-dihydroquinolin-1(2H)-yl)-7-fluoro-1-methyl-[1,2,4]triazolo[4,3-a]quinazoline], for which the IC50 at human DGKα amounted to 11 nM. Besides, the half-maximal effective concentration (EC50) in assay [1] was found to be 0.461 nM.

With `Cc1nnc2nc(N(CC(F)F)c3ccnc(C#CC4(C(F)(F)F)CC4)c3)c3c(F)c(F)ccc3n12` [Example 92, N-(2,2-difluoroethyl)-6,7-difluoro-1-methyl-N-(2-((1-(trifluoromethyl)cyclopropyl)ethynyl)pyridin-4-yl)-[1,2,4]triazolo[4,3-a]quinazolin-5-amine], the 50% inhibitory concentration (IC50) at human DGKα came to 13.8 nM. Further, the EC50 in assay [1] is 5.3 nM.

As for `Cc1nnc2nc(N3CCOCc4c(C#CC(C)(C)C#N)cccc43)c3c(F)cccc3n12` [Example 189, 4-[1-(6-Fluoro-1-methyl-[1,2,4]triazolo[4,3-a]quinazolin-5-yl)-3,5-dihydro-2H-4,1-benzoxazepin-6-yl]-2,2-dimethyl-but-3-ynenitrile], the concentration for half-maximal inhibition (IC50) at human DGKα is 1.84 nM. The EC50 in assay [1] was 3.44 nM.

As to `Cc1nnc2nc(N3CCCc4c(C#CC(C)(C)C(=O)O)cccc43)c3c(F)cccc3n12` [Example 73, 4-(1-(6-fluoro-1-methyl-[1,2,4]triazolo[4,3-a]quinazolin-5-yl)-1,2,3,4-tetrahydroquinolin-5-yl)-2,2-dimethylbut-3-ynoic Acid], the IC50 on human DGKα turned out to be 61.3 nM. Moreover, the EC50 in assay [1] was found to be 10.8 nM.

For `Cc1nnc2nc(N3CCCc4c(C#CC5(O)CCC6(CC5)CC6)cccc43)c3c(F)cccc3n12` [Example 197], the IC50 on human DGKα came to 11 nM. In addition, the concentration giving a half-maximal response (EC50) in assay [1] is 1.38 nM.

In the case of `Cc1nnc2nc(N3c4cccc(C#CC(C)(C)O)c4CCC3C)c3c(F)cccc3n12` (stereo not drawn) [Example 59, 4-(1-(6-fluoro-1-methyl-[1,2,4]triazolo[4,3-a]quinazolin-5-yl)-2-methyl-1,2,3,4-tetrahydroquinolin-5-yl)-2-methylbut-3-yn-2-ol], the half-maximal inhibitory concentration (IC50) on human DGKα was found to be 11.2 nM. In addition, the EC50 in assay [1] was 11.7 nM.

Take `Cc1nnc2nc(N3CCOCc4c3ccnc4C#CC(C)(C)C(F)(F)F)c3c(F)cccc3n12` [Example 140, 1-(6-fluoro-1-methyl-[1,2,4]triazolo[4,3-a]quinazolin-5-yl)-6-(4,4,4-trifluoro-3,3-dimethylbut-1-yn-1-yl)-1,2,3,5-tetrahydropyrido[4,3-e][1,4]oxazepine]: on human DGKα, the IC50 came to 4.52 nM. In assay [1], the 50% effective concentration (EC50) was 4.36 nM.

Consider `Cc1nnc2nc(N(CC(F)F)c3cc(F)cc(C#CC4COC4)c3)c3c(F)cccc3n12` [Example 23, N-(2,2-difluoroethyl)-6-fluoro-N-(3-fluoro-5-(oxetan-3-ylethynyl)phenyl)-1-methyl-[1,2,4]triazolo[4,3-a]quinazolin-5-amine], for which the IC50 on human DGKα came out at 33.9 nM. Also, the EC50 in assay [1] worked out at 3.46 nM.

Take `Cc1nnc2nc(N3CCCc4c(C#CC5CCC5)cccc43)c3cc(F)ccc3n12` [Example 30, 5-(5-(cyclobutylethynyl)-3,4-dihydroquinolin-1(2H)-yl)-7-fluoro-1-methyl-[1,2,4]triazolo[4,3-a]quinazoline]: on human DGKα, the IC50 was determined as 14.7 nM. Moreover, the concentration giving a half-maximal response (EC50) in assay [1] worked out at 0.163 nM.

On to `Cc1nnc2nc(N(CC(F)F)c3cc(F)cc(C#CC(C)(C)c4ccccn4)c3)c3c(F)c(F)ccc3n12` [Example 68, N-(2,2-difluoroethyl)-6,7-difluoro-N-(3-fluoro-5-(3-methyl-3-(pyridin-2-yl)but-1-yn-1-yl)phenyl)-1-methyl-[1,2,4]triazolo[4,3-a]quinazolin-5-amine], for which the IC50 at human DGKα came out at 191 nM. In addition, the concentration giving a half-maximal response (EC50) in assay [1] was found to be 9.68 nM.

As to `Cc1nnc2nc(N(CC(F)F)c3ccnc(C#CC(C)(C)C(F)(F)F)c3F)c3c(F)c(F)ccc3n12` [Example 80, N-(2,2-difluoroethyl)-6,7-difluoro-N-(3-fluoro-2-(4,4,4-trifluoro-3,3-dimethylbut-1-yn-1-yl)pyridin-4-yl)-1-methyl-[1,2,4]triazolo[4,3-a]quinazolin-5-amine], the IC50 on human DGKα came out at 15.1 nM. In assay [1], the EC50 is 2.15 nM.

As to `Cc1nnc2nc(N3CCOCc4c(C#CC(C)(C)C(=O)NC5(C(F)(F)F)CC5)cccc43)c3c(F)c(F)ccc3n12` [Example 64, 4-(1-(6,7-difluoro-1-methyl-[1,2,4]triazolo[4,3-a]quinazolin-5-yl)-1,2,3,5-tetrahydrobenzo[e][1,4]oxazepin-6-yl)-2,2-dimethyl-N-(1-(trifluoromethyl)cyclopropyl)but-3-ynamide], on human DGKα, the IC50 came out at 9.97 nM. Also, the concentration giving a half-maximal response (EC50) in assay [1] came out at 7.43 nM.

For `Cc1nnc2nc(N3CCCc4c(C#CC5(C)CC5)cccc43)c3c(Cl)c(F)ccc3n12` [Example 33, 6-chloro-7-fluoro-1-methyl-5-[5-[2-(1-methylcyclopropyl)ethynyl]-3,4-dihydro-2H-quinolin-1-yl]-[1,2,4]triazolo[4,3-a]quinazoline], the half-inhibitory concentration (IC50) at human DGKα was 42.4 nM. Moreover, the concentration giving a half-maximal response (EC50) in assay [1] came out at 1.59 nM.

Turning to `Cc1nnc2nc(N3CCCc4c(C#CC(C)(C)C(=O)N5CCC(F)(F)CC5)cccc43)c3c(F)cccc3n12` [Example 69, 1-(4,4-difluoropiperidin-1-yl)-4-(1-(6-fluoro-1-methyl-[1,2,4]triazolo[4,3-a]quinazolin-5-yl)-1,2,3,4-tetrahydroquinolin-5-yl)-2,2-dimethylbut-3-yn-1-one], the IC50 on human DGKα came to 70.5 nM. In assay [1], the concentration for a half-maximal effect (EC50) was determined as 2.26 nM.

For `Cc1nnc2nc(N3CCCc4c(C#Cc5ccc(C#N)nc5)cccc43)c3c(F)cccc3n12` [Example 213, 5-((1-(6-fluoro-1-methyl-[1,2,4]triazolo[4,3-a]quinazolin-5-yl)-1,2,3,4-tetrahydroquinolin-5-yl)ethynyl)picolinonitrile], on human DGKα, the 50% inhibitory concentration (IC50) was determined as 10 nM. Also, the EC50 in assay [1] worked out at 1.28 nM.

For `Fc1ccc(F)c2c1c(N1CCOCc3c(C#CC4(C(F)(F)F)CC4)cccc31)nc1nncn12` [Example 112], at human DGKα, the 50% inhibitory concentration (IC50) is 3.48 nM. In addition, in assay [1], the EC50 stood at 0.716 nM.

As for `Cc1nnc2nc(N3CCCc4c(C#Cc5ccn[nH]5)cccc43)c3c(F)cccc3n12` [Example 215, 5-(5-((1H-pyrazol-5-yl)ethynyl)-3,4-dihydroquinolin-1(2H)-yl)-6-fluoro-1-methyl-[1,2,4]triazolo[4,3-a]quinazoline], the IC50 on human DGKα is 25.2 nM. Moreover, the half-maximal effective concentration (EC50) in assay [1] is 9.95 nM.

On to `Cc1nnc2nc(N(CC(F)F)c3ccnc(C#CC4(C(F)(F)F)CC4)c3F)c3cc(F)ccc3n12` [Example 89], for which the half-maximal inhibitory concentration (IC50) on human DGKα came out at 5.41 nM. Besides, in assay [1], the EC50 was 4.61 nM.

For the compound `Cc1nnc2nc(N3CCCOc4c(C#CC5(C)CC5)cccc43)c3c(F)c(F)ccc3n12` [Example 122], the 50% inhibitory concentration (IC50) at human DGKα worked out at 5.27 nM. For the same compound, the half-maximal effective concentration (EC50) in assay [1] is 2.63 nM.

One may read the IC50 as the midpoint of a concentration-inhibition curve. The term EC50 denotes the concentration needed to bring the measured effect to its halfway point.
